Test results as given in patent US12492173B2, “Herbicidal substituted N-tetrazolyl aryl carboxamides” (Bayer Aktiengesellschaft, priority 2019, dated 2025).

What was measured:
Type in all cases: in vivo
[1] = tested on: Hordeum murinum; assay: Pre-emergence herbicidal action, HORMU; settings: dosage 320 g/ha, scored visually after 3 weeks vs untreated controls (100% = plants have died)
Description: (§1) 1. Pre-Emergence Herbicidal Action Against Harmful Plants Seeds of monocotyledonous and dicotyledonous weed plants and crop plants are laid out in sandy loam soil in wood-fiber pots and covered with soil. The compounds of the invention, formulated in the form of wettable powders (WP) or as emulsion concentrates (EC), are then applied to the surface of the covering soil in the form of an aqueous suspension or emulsion at a water application rate equating to 600 to 800 l/ha, with addition of 0.2% wetting agent. After the treatment, the pots are placed in a greenhouse and kept under good growth conditions for the trial plants. The damage to the test plants is scored visually after a test period of 3 weeks by comparison with untreated controls (herbicidal activity in percent (%): 100% activity=the plants have died, 0% activity=like control plants). […] The tables below illustrate, in an exemplary manner, the […] herbicidal action of the compounds according to the invention, the herbicidal activity being stated in percent. [table] In the experiments that follow, herbicidal action of numerous inventive compounds and the known compounds that are structurally closest from D1 (WO 2012/028579 A1) and D2 (WO 2018/202535 A1) were compared under the above-specified conditions by the pre-emergence and post-emergence method. The example numbers given in the tables relate to the compounds disclosed in the respective documents. In addition to the compounds disclosed in D1 and D2, the following compounds V-1 to V-14 that are encompassed by D1 or D2 but are not compounds specified therein were used in the comparative experiments: • V-1: 2-(methylsulfanyl)-3-(methylsulfinyl)-N-(1-methyl-1H-tetrazol-5-yl)-4-(trifluoromethyl)benzamide • V-2: 2-(methylsulfanyl)-3-(methylsulfonyl)-N-(1-methyl-1H-tetrazol-5-yl)-4-(trifluoromethyl)benzamide • V-3: 2,3-bis(ethylsulfanyl)-N-(1-methyl-1H-tetrazol-5-yl)-4-(trifluoromethyl)benzamide • V-4: 2-chloro-3-(ethylsulfanyl)-N-(1-methyl-1H-tetrazol-5-yl)-4-(trifluoromethyl)benzamide • V-5: 2-chloro-4-iodo-3-(methylsulfanyl)-N-(1-methyl-1H-tetrazol-5-yl)benzamide • V-6: 2-chloro-4-iodo-3-(methylsulfinyl)-N-(1-methyl-1H-tetrazol-5-yl)benzamide • V-7: 2-chloro-4-iodo-3-(methylsulfonyl)-N-(1-methyl-1H-tetrazol-5-yl)benzamide • V-8: 2-bromo-3-(methylsulfanyl)-N-(1-methyl-1H-tetrazol-5-yl)-4-(trifluoromethyl)benzamide • V-9: 2-bromo-3-(methylsulfinyl)-N-(1-methyl-1H-tetrazol-5-yl)-4-(trifluoromethyl)benzamide • V-10: 2-bromo-3-(methylsulfonyl)-N-(1-methyl-1H-tetrazol-5-yl)-4-(trifluoromethyl)benzamide • V-11: 2-bromo-3-(ethylsulfanyl)-N-(1-methyl-1H-tetrazol-5-yl)-4-(trifluoromethyl)benzamide • V-12: 2-bromo-3-(ethylsulfinyl)-N-(1-methyl-1H-tetrazol-5-yl)-4-(trifluoromethyl)benzamide • V-13: 2-bromo-3-(ethylsulfonyl)-N-(1-methyl-1-1H-tetrazol-5-yl)-4-(trifluoromethyl)benzamide • V-14: 2-cyclopropyl-3-(ethylsulfanyl)-N-(1-methyl-1H-tetrazol-5-yl)-4-(trifluoromethyl)benzamide Herbicidal Pre-Emergence Action: […]

[2] = tested on: Polygonum convolvulus; assay: Pre-emergence herbicidal action, POLCO; settings: for Herbicidal action against POLCO: comparative experiment, 20 g of a.i./ha
Description: as §1

[3] = tested on: Abutilon theophrasti; assay: Pre-emergence herbicidal action, ABUTH; parameters: key to Herbicidal action against ABUTH: % activity: 100 = plants have died, 0 = like control plants; settings: for Herbicidal action against ABUTH: comparative experiment
Method in brief: (§2)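 Visual scoring after 3 weeks in the greenhouse, relative to untreated pots, gave percent activity, where 100% means dead plants and 0% equals controls. Treatment was a pre-emergence soil-surface spray of WP or EC formulations in water (600 to 800 l/ha, 0.2% wetting agent) over seeds covered in sandy loam.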

[4] = tested on: Amaranthus retroflexus; assay: Pre-emergence herbicidal action, AMARE; parameters: key to Herbicidal action against AMARE: % activity: 100 = plants have died, 0 = like control plants; settings: for Herbicidal action against AMARE: comparative experiment
Method in brief: as §2

[5] = tested on: Stellaria media; assay: Pre-emergence herbicidal action, STEME; settings: dosage 320 g/ha, scored visually after 3 weeks vs untreated controls (100% = plants have died)
Method in brief: as §2

[6] = tested on: Setaria viridis; assay: Post-emergence herbicidal action, SETVI; parameters: key: % herbicidal action vs untreated; 100 = plants died, 0 = like control; settings: post-emergence
Method in brief: (§3)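 Treatment: post-emergence spray, one-leaf stage. Medium: sandy loam, greenhouse. Carrier: 600–800 l/ha water, 0.2% wetting agent. Read-out: visual % activity at ~3 weeks, untreated plants as reference.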

[7] = tested on: Matricaria inodora; assay: Pre-emergence herbicidal action, MATIN; settings: dosage 320 g/ha, scored visually after 3 weeks vs untreated controls (100% = plants have died)
Method in brief: as §2

[8] = tested on: Abutilon theophrasti; assay: Post-emergence herbicidal action, ABUTH; parameters: key: % herbicidal action vs untreated; 100 = plants died, 0 = like control; settings: post-emergence
Method in brief: as §3

[9] = tested on: Viola tricolor; assay: Pre-emergence herbicidal action, VIOTR; parameters: key to Herbicidal action against VIOTR: % activity: 100 = plants have died, 0 = like control plants
Method in brief: as §2

[10] = tested on: Echinochloa crus-galli; assay: Post-emergence herbicidal action, ECHCG; parameters: key: % herbicidal action vs untreated; 100 = plants died, 0 = like control; settings: post-emergence, dosage 80 g/ha
Method in brief: as §3

[11] = tested on: Amaranthus retroflexus; assay: Post-emergence herbicidal action, AMARE; parameters: key: % herbicidal action vs untreated; 100 = plants died, 0 = like control; settings: post-emergence, dosage 80 g/ha
Method in brief: as §3

[12] = tested on: Matricaria inodora; assay: Post-emergence herbicidal action, MATIN; parameters: key: % herbicidal action vs untreated; 100 = plants died, 0 = like control; settings: post-emergence, dosage 80 g/ha
Method in brief: as §3

[13] = tested on: Echinochloa crus-galli; assay: Pre-emergence herbicidal action, ECHCG; settings: for pest or weed control at 20 g/ha: 20 g of a.i./ha
Method in brief: as §2

[14] = tested on: Setaria viridis; assay: Pre-emergence herbicidal action, SETVI; parameters: key to Herbicidal action against SETVI: % activity: 100 = plants have died, 0 = like control plants
Description: as §1

[15] = tested on: Pharbitis purpurea; assay: Post-emergence herbicidal action, PHBPU; settings: post-emergence, dosage 80 g/ha
Method in brief: as §3

[16] = tested on: Pharbitis purpurea; assay: Pre-emergence herbicidal action, PHBPU; settings: comparative experiment, 20 g of a.i./ha
Description: as §1

[17] = tested on: Cyperus esculentus; assay: Pre-emergence herbicidal action, CYPES; parameters: key: % activity: 100 = plants have died, 0 = like control plants; settings: comparative experiment
Description: as §1

[18] = tested on: Polygonum convolvulus; assay: Post-emergence herbicidal action, POLCO; settings: comparative experiment, post-emergence, 5 g of a.i./ha
Protocol: (§4) [table] 2. Post-Emergence Herbicidal Action Against Harmful Plants Seeds of monocotyledonous and dicotyledonous weed and crop plants are laid out in sandy loam soil in wood-fiber pots, covered with soil and cultivated in a greenhouse under good growth conditions. 2 to 3 weeks after sowing, the test plants are treated at the one-leaf stage. The compounds of the invention, formulated in the form of wettable powders (WP) or as emulsion concentrates (EC), are then sprayed onto the green parts of the plants in the form of an aqueous suspension or emulsion at a water application rate equating to 600 to 800 l/ha, with addition of 0.2% wetting agent. After the test plants have been left to stand in the greenhouse under optimal growth conditions for about 3 weeks, the action of the preparations is assessed visually in comparison to untreated controls (herbicidal action in percent (%): 100% activity=the plants have died, 0% activity=like control plants). […] The tables below illustrate, in an exemplary manner, the post-emergence herbicidal action of the compounds according to the invention, the herbicidal activity being stated in percent. In the experiments that follow, herbicidal action of numerous inventive compounds and the known compounds that are structurally closest from D1 (WO 2012/028579 A1) and D2 (WO 2018/202535 A1) were compared under the above-specified conditions by the pre-emergence and post-emergence method. The example numbers given in the tables relate to the compounds disclosed in the respective documents. In addition to the compounds disclosed in D1 and D2, the following compounds V-1 to V-14 that are encompassed by D1 or D2 but are not compounds specified therein were used in the comparative experiments: • V-1: 2-(methylsulfanyl)-3-(methylsulfinyl)-N-(1-methyl-1H-tetrazol-5-yl)-4-(trifluoromethyl)benzamide • V-2: 2-(methylsulfanyl)-3-(methylsulfonyl)-N-(1-methyl-1H-tetrazol-5-yl)-4-(trifluoromethyl)benzamide • V-3: 2,3-bis(ethylsulfanyl)-N-(1-methyl-1H-tetrazol-5-yl)-4-(trifluoromethyl)benzamide • V-4: 2-chloro-3-(ethylsulfanyl)-N-(1-methyl-1H-tetrazol-5-yl)-4-(trifluoromethyl)benzamide • V-5: 2-chloro-4-iodo-3-(methylsulfanyl)-N-(1-methyl-1H-tetrazol-5-yl)benzamide • V-6: 2-chloro-4-iodo-3-(methylsulfinyl)-N-(1-methyl-1H-tetrazol-5-yl)benzamide • V-7: 2-chloro-4-iodo-3-(methylsulfonyl)-N-(1-methyl-1H-tetrazol-5-yl)benzamide • V-8: 2-bromo-3-(methylsulfanyl)-N-(1-methyl-1H-tetrazol-5-yl)-4-(trifluoromethyl)benzamide • V-9: 2-bromo-3-(methylsulfinyl)-N-(1-methyl-1H-tetrazol-5-yl)-4-(trifluoromethyl)benzamide • V-10: 2-bromo-3-(methylsulfonyl)-N-(1-methyl-1H-tetrazol-5-yl)-4-(trifluoromethyl)benzamide • V-11: 2-bromo-3-(ethylsulfanyl)-N-(1-methyl-1H-tetrazol-5-yl)-4-(trifluoromethyl)benzamide • V-12: 2-bromo-3-(ethylsulfinyl)-N-(1-methyl-1H-tetrazol-5-yl)-4-(trifluoromethyl)benzamide • V-13: 2-bromo-3-(ethylsulfonyl)-N-(1-methyl-1-1H-tetrazol-5-yl)-4-(trifluoromethyl)benzamide • V-14: 2-cyclopropyl-3-(ethylsulfanyl)-N-(1-methyl-1H-tetrazol-5-yl)-4-(trifluoromethyl)benzamide Herbicidal Pre-Emergence Action: […]

[19] = tested on: Alopecurus myosuroides; assay: Post-emergence herbicidal action, ALOMY; parameters: key: % herbicidal action vs untreated; 100 = plants died, 0 = like control; settings: comparative experiment, post-emergence, 20 g of a.i./ha
Protocol: as §4

[20] = tested on: Stellaria media; assay: Post-emergence herbicidal action, STEME; parameters: key: % herbicidal action vs untreated; 100 = plants died, 0 = like control; settings: comparative experiment, post-emergence, 20 g of a.i./ha
Method in brief: as §3

[21] = tested on: Veronica persica; assay: Pre-emergence herbicidal action, VERPE; parameters: key to Herbicidal action against VERPE: % activity: 100 = plants have died, 0 = like control plants; settings: comparative experiment, 80 g of a.i./ha
Method in brief: as §2

[22] = tested on: Avena fatua; assay: Post-emergence herbicidal action, AVEFA; parameters: key: % herbicidal action vs untreated; 100 = plants died, 0 = like control; settings: comparative experiment, post-emergence, 20 g of a.i./ha
Protocol: as §4

[23] = tested on: Veronica persica; assay: Post-emergence herbicidal action, VERPE; parameters: key: % herbicidal action vs untreated; 100 = plants died, 0 = like control; settings: comparative experiment, post-emergence, 20 g of a.i./ha
Method in brief: as §3

[24] = tested on: Viola tricolor; assay: Post-emergence herbicidal action, VIOTR; parameters: key: % herbicidal action vs untreated; 100 = plants died, 0 = like control; settings: comparative experiment, post-emergence, 20 g of a.i./ha
Method in brief: as §3

[25] = dosage 320 g/ha, scored visually after 3 weeks vs untreated controls (100% = plants have died)
[26] = Echinochloa crus-galli, 504 h, comparative experiment, read-out: Herbicidal action against ECHCG
[27] = comparative experiment, 20 g of a.i./ha
[28] = comparative experiment, 80 g of a.i./ha

CCn1nnnc1NC(=O)c1ccc(I)c(CSC)c1Cl [Example 2-362]
herbicidal activity HORMU [1]: 90% | herbicidal activity POLCO [2, 25]: 100% | herbicidal activity ABUTH [3, 25]: 100% | herbicidal activity AMARE [4, 25]: 100% | herbicidal activity STEME [5]: 100% | Herbicidal action against SETVI ([6]; dosage 80 g/ha): 90 | herbicidal activity MATIN [7]: 100% | Herbicidal action against ABUTH ([8]; dosage 80 g/ha): 90 | herbicidal activity VIOTR [9, 25]: 100% | Herbicidal action against ECHCG [10]: 100 | Herbicidal action against AMARE [11]: 100 | Herbicidal action against MATIN [12]: 100 | herbicidal activity ECHCG [13, 25]: 100% | herbicidal activity SETVI [14, 25]: 100% | Herbicidal action against PHBPU [15]: 90

CSc1c(C(=O)Nc2nnnn2C)ccc(C(F)(F)F)c1[S+](C)[O-] (stereo not shown) [Example V-1, 2-(methylsulfanyl)-3-(methylsulfinyl)-N-(1-methyl-1H-tetrazol-5-yl)-4-(trifluoromethyl)benzamide, reference compound]
Herbicidal action against POLCO [2]: 0 | Herbicidal action against PHBPU [16]: 0 | Herbicidal action against ABUTH ([3]; 20 g of a.i./ha): 0 | Herbicidal action against AMARE ([4]; 20 g of a.i./ha): 60 | Herbicidal action against CYPES ([17]; 20 g of a.i./ha): 50 | pest or weed control at 20 g/ha [13, 26]: 50%

CSc1c(C(=O)Nc2nnnn2C)ccc(C(F)(F)F)c1S(C)(=O)=O [Example V-2, 2-(methylsulfanyl)-3-(methylsulfonyl)-N-(1-methyl-1H-tetrazol-5-yl)-4-(trifluoromethyl)benzamide, reference compound]
Herbicidal action against POLCO [2]: 0 | Herbicidal action against POLCO [18]: 0 | Herbicidal action against CYPES ([17]; 20 g of a.i./ha): 0 | pest or weed control at 20 g/ha [13, 26]: 50%

CSc1c(C(F)(F)F)ccc(C(=O)Nc2nnnn2C)c1Br [Example V-8, 2-bromo-3-(methylsulfanyl)-N-(1-methyl-1H-tetrazol-5-yl)-4-(trifluoromethyl)benzamide, reference compound]
Herbicidal action against CYPES ([17]; 20 g of a.i./ha): 0

CCSc1c(C(F)(F)F)ccc(C(=O)Nc2nnnn2C)c1Br [Example V-11, 2-bromo-3-(ethylsulfanyl)-N-(1-methyl-1H-tetrazol-5-yl)-4-(trifluoromethyl)benzamide, reference compound]
Herbicidal action against ALOMY [19]: 0 | Herbicidal action against STEME [20]: 0 | Herbicidal action against ABUTH ([3]; 80 g of a.i./ha): 0 | Herbicidal action against AMARE ([4]; 80 g of a.i./ha): 0 | Herbicidal action against VERPE [21]: 10 | Herbicidal action against AVEFA [22]: 0 | Herbicidal action against SETVI [6, 27]: 0 | Herbicidal action against ABUTH [8, 27]: 0 | Herbicidal action against VIOTR [9, 28]: 80 | Herbicidal action against VERPE [23]: 40 | Herbicidal action against CYPES ([17]; 80 g of a.i./ha): 0 | pest or weed control at 80 g/ha ([13]; Echinochloa crus-galli, 504 h, comparative experiment, 80 g of a.i./ha, read-out: Herbicidal action against ECHCG): 0% | Herbicidal action against VIOTR [24]: 20 | Herbicidal action against SETVI [14, 28]: 0
